Source: patent US6602856B1, “Antagonists of alpha-melanocyte stimulating hormone and methods based thereon” (priority 1995, dated 2003)
Non-standard residues stand in square brackets, D forms with d. No end group written: not given here. Nle = CCCC[C@H](N)C(=O)O

Key:
[1] = target: T1, endogenous amphibian MSH-receptors (Xenopus laevis, UniProt A0A1L8GF34); assay type: cell-based; settings: against 15 nM α-MSH; melanophores pretreated with 1 nM melatonin; mean±SE
T1 sequence (A0A1L8GF34 1-317): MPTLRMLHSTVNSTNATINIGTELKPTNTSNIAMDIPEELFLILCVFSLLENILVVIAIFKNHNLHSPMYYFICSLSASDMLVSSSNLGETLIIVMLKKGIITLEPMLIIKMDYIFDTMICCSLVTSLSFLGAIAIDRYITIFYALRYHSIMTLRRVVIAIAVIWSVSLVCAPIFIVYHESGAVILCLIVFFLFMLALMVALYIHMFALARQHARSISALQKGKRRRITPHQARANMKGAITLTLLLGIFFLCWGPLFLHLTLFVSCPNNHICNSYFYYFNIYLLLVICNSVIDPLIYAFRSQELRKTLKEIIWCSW
Description: Melanin dispersion responses were quantitated by measuring transmittance through a monolayer of cultured melanophores pretreated with 1 nM melatonin (Potenza, et. al., 1992, Anal Biochem. 206, 315-22) and curve fit with a logistic equation (De Lean et al., 1978, Am J. Physiol. 235, E97-E102).
Broken lines indicate 99% confidence level.
(§1) Each point represents the mean and SSD of four independent transmittance measurements. Ti=initial transmittance (2 min.). Tf=final transmittance (60 min.).
(§2) For dose-response studies all tripeptides were synthesized on Rink Amide MBHA resin 0.25 mmol scale using standard Fmoc chemistry. After synthesis, peptides were purified suing HPLC and reverse-phase chromatography on a C18 column. The dose-response curves were obtained by microtiter plate assays (Potenza et al, 1992, Pigment Cell Res. 5, 372-378). Melanophore cells (18,000/well) were plated on 96-well tissue culture plates (Falcon).

[2] = test system: vasoactive intestinal peptide (VIP) activated pigment dispersion in Xenopus melanophores; settings: read-out: EC50 (pigment dispersion)
Description: as §1, §2
(§3) The 221,184 component library was organized as 96 sub-libraries with 2,304 different peptide combinations per pool, each defined by the chemical structure of the amino terminal position.

[3] = test system: cAMP stimulation evoked by AVT; assay: AVT evoked intracellular cAMP stimulation in Xenopus melanophores; assay type: cell-based, Xenopus laevis; settings: AVT 8 nM
Description: (§4) Oxytocin antagonist GVT ([d(CH2)5, Tyr (Me)^2, Orn^8]-Vasotocin; from Peninsula), at 20 μM, is used as a control to block responses evoked by 8 Nm AVT. Intracellular CAMP measurements were taken from confluent Xenopus melanophores grown in 24-well tissue culture plates (Falcon). Each bar represents the mean and SSD of four independent measurements. *(T-test; P<0.001) for all groups except those bearing asterisks.
(§5) Melanophores were plated confluently into 24-well tissue culture (Falcon) plates two days before the assay. Immediately prior to an assay, cells were washed with 70% L-15 medium (Sigma) containing 0.05% bovine serum albumin and then treated with 1 nm melatonin in the same medium. Then, cells were washed for 5 min in 70% L-15+0.05% bovine serum albumin+0.5 mm 3-isobutyl-1-methylxanthine (Aldrich)+1 nm melatonin, followed by 30 min of treatment with the test drug in the same media. After the drug treatment, cells were washed twice with 70% phosphate-buffered saline.
(§6) Oxytocin antagonist GVT ([d(CH2)5, Tyr (Me)^2, Orn^8]-Vasotocin; from Peninsula), at 20 μM, is used as a control to block responses evoked by 8 nM AVT.

[4] = test system: α-MSH mediated cAMP second messenger stimulation; assay: α-MSH mediated intracellular cAMP stimulation in Xenopus melanophores; assay type: cell-based, Xenopus laevis; settings: peptide at 40 μM; α-MSH 10 nM
Description: as §4, §5, §6

[5] = test system: [Arg^8]-vasotocin (AVT) activated pigment dispersion in Xenopus melanophores; settings: read-out: EC50 (pigment dispersion)
Description: as §1, §2, §3

Substance | IC50 (μM) [1] | further results
D-Trp-Arg-Ala-NH2 [A13] | Inactive | –
Vasoactive Intestinal Peptide [VIP] | – | EC50 [2]: ~1 nM
[dW]-Asp-[Nle]-NH2 [B8] | Inactive | –
[d(CH2)5, Tyr (Me)^2, Orn^8]-Vasotocin [GVT, reference compound] | – | block of responses evoked by AVT (cAMP) ([3]; antagonist at 20 μM, control): block
D-Trp-Arg-Nle-NH2 [A2] | – | block of cAMP stimulation evoked by AVT ([3]; peptide at 40 μM): does not block; block of α-MSH mediated cAMP stimulation [4]: blocks
D-Trp-Arg-εAhx-NH2 [A12] | Inactive | –
[Arg^8]-vasotocin [AVT] | – | EC50 [5]: ~2 nM
D-Trp-Arg-βAla-NH2 [A14] | Inactive | –
D-Trp-Arg-γAbu-NH2 [A11] | Inactive | –
